Consider eight compounds from patent US8546357B2, “Boron-containing small molecules for controlling ectoparasites” (priority 2011, dated 2013).

Data set [1] has as its system Lone star tick larvae (Amblyomma americanum). Put plainly: Larval immersion microassay against larval-stage Lone star ticks. The conditions noted are these: Amblyomma americanum, 24 h, read-out: activity (percent larval mortality). As to the method:
The larval immersion microassay was conducted as described in detail in White, et al., J. Med. Entomol. 41: 1034-1042 (2004). Compounds of the invention were formulated in dimethylsulfoxide (DMSO) to prepare a stock solution at a concentration of at least 10 mM. Using 96-well microtiter plates, an aliquot of the mM sample was subsequently diluted in a water-based solution containing 1% ethanol and 0.2% Triton X-100, to obtain the desired concentration (typically 0.3 mM or lower) of compound in a volume of 0.1 ml (minimum n=3 replicates per compound or concentration). Approximately 30-50 Lone star tick larvae (Amblyomma americanum) were submerged into each well containing compounds. After a 30 minute immersion period, larvae were removed with a wide-bore pipette tip in 0.05 ml of fluid, dispensed into a commercial paper tissue biopsy bag which was sealed at the top with a plastic dialysis clip, inverted and allowed to air dry for 60 minutes. Bags containing larvae were then incubated at approximately 27 degrees Celsius and >90% relative humidity. After 24 hours, bags were opened, live and dead larvae were counted and percent larval mortality was calculated.
7 and 8 contain one chiral center each, and are racemic mixtures comprised of approximately 50% R- and 50% S-enantiomer. In vitro and surrogate animal (rat) studies were conducted to evaluate the biological activity of the R- and S-enantiomers of 7 and 8. For the in vitro study, larvae of the Lone star tick (Amblyomma americanum) were exposed to 9, 10, 11 and 12 using the larval immersion microassay at a concentration of no greater than 0.3 mM. Following exposure, larvae were removed, transferred to a tissue biopsy bag and incubated at approximately 27 degrees Celsius and >90% relative humidity. After 24 hours, biopsy bags were opened and the numbers of live and dead larvae were determined

For data set [2], the system named is adult American dog tick (Dermacentor variabilis). Description: Therapeutic (knockdown) and residual efficacy against adult American dog tick infestations on dogs, oral. The settings on record: for Geometric mean group live parasite counts / % efficacy: Table 7, oral capsule 25 mg/kg; for therapeutic efficacy / Residual efficacy: oral gavage 25 mg/kg. In kind it is in vivo. As to the method: (§1) The therapeutic (knockdown) and residual efficacy of 5, administered orally at a point dose of 25 mg/kg bodyweight, was evaluated against adult American dog tick (D. variabilis) infestations on dogs. Six beagle dogs were allocated to one of two treatment groups, an untreated control group (n=4 dogs) or 5 group (n=2 dogs). On Day 0, two dogs were treated with 5 via oral gavage (25 mg/ml 5, dissolved in a solution of 55% polyethylene glycol-300, 35% propylene glycol and 10% water) at a point dose of approximately 25 mg/kg. Twenty-four (24) hours before treatment (Day −1), all dogs were infested with approximately 50 unfed, adult-stage American dog ticks (D. variabilis; approximately 50% male and 50% female). On Day 1, approximately 24 hours after treatment, thumb counts were conducted to determine the number and life-status classification of ticks present on all dogs (normal, moribund or dead; attached or detached). Ticks were not removed during thumb counts. On Day 2, approximately 48 hours after treatment, all ticks were classified and removed from dogs. Dogs were re-infested with approximately 50 unfed, adult D. variabilis ticks on Days 5 and 12, with tick classification, counts and removal on Days 7 and 14 (approximately 48 hours after each infestation).
(§2) The therapeutic (knockdown) and residual efficacy of 7 and 8, each administered orally at a point dose of 25 mg/kg bodyweight, was evaluated against adult tick (Dermacentor variabilis and Rhipicephalus sanguineus) and adult cat flea (Ctenocephalides felis) infestations on dogs. Twelve (12) male and female beagle dogs were randomly allocated to one of three treatment groups, four (4) dogs per group: Untreated control; 7, 25 mg/kg; and 8, 25 mg/kg. On Day −1, all dogs were infested with approximately 50 unfed, adult D. variabilis ticks. On Day 0, dogs were orally administered gelatin capsules containing either 7 or 8 (50% technical active, 47% microcrystalline cellulose and 3% croscarmellose sodium, w/w). Ticks were counted and classified, but not removed, on all dogs on Day 1, approximately 24 hours after treatment. On Day 2, approximately 48 hours after treatment, ticks were counted, classified and removed. Dogs were re-infested with the same number of D. variabilis ticks on Days 5, 12, 19 and 28 and tick counts were conducted on Days 7, 14, 21 and 30.
(§3) The therapeutic (knockdown) and residual efficacy of 7, administered orally at a point dose of 35 mg/kg bodyweight, was evaluated against adult tick (Dermacentor variabilis and Rhipicephalus sanguineus) and adult cat flea (Ctenocephalides felis) infestations on dogs. Twelve (12) male and female beagle dogs were allocated to either an untreated, negative control group or 7 group (n=6 dogs per group). Dogs were infested with approximately 50 unfed, adult D. variabilis ticks on Days −1, 5, 12, 19, 28, 35 and 42. On Day 0, dogs were orally administered gelatin capsules containing Compound 8194 (50% technical active, 47% microcrystalline cellulose and 3% croscarmellose sodium, w/w) at a point dose of 35 mg/kg. D. variabilis tick counts and classification were conducted on Day 1 (thumb count, approximately 24 hours after treatment) and Days 2, 7, 14, 21, 30, 37 and 44 (approximately 48 hours after treatment). Following removal of D. variabilis ticks on Day 30, all dogs were co-infested with approximately 50 unfed, adult brown dog ticks (R. sanguineus) and approximately 100 unfed, adult cat fleas (C. felis). Brown dog tick and cat flea counts were conducted on Day 32 (approximately 48 hours after infestation). GM percent efficacy of treatments against both tick species and fleas was calculated using the following formula: […]
The therapeutic (knockdown) and residual efficacy of S-enantiomer, 9, administered orally at a point dose of 25 mg/kg bodyweight, was evaluated against adult tick (Dermacentor variabilis and Rhipicephalus sanguineus) and adult cat flea (Ctenocephalides felis) infestations on dogs. […]

Data set [3] is described as follows: Tolerability of oral treatment in dogs. In kind it is in vivo, dog. The conditions noted are these: oral gavage 25 mg/kg. As to the method: as §1, §2
The therapeutic (knockdown) and residual efficacy of 7, administered orally at a point dose of 35 mg/kg bodyweight, was evaluated against adult tick (Dermacentor variabilis and Rhipicephalus sanguineus) and adult cat flea (Ctenocephalides felis) infestations on dogs. Twelve (12) male and female beagle dogs were allocated to either an untreated, negative control group or 7 group (n=6 dogs per group). Dogs were infested with approximately 50 unfed, adult D. variabilis ticks on Days −1, 5, 12, 19, 28, 35 and 42. On Day 0, dogs were orally administered gelatin capsules containing Compound 8194 (50% technical active, 47% microcrystalline cellulose and 3% croscarmellose sodium, w/w) at a point dose of 35 mg/kg. […] GM percent efficacy of treatments against both tick species and fleas was calculated using the following formula: […]
The therapeutic efficacy and speed of kill of 7, administered orally at a point dose of 20 mg/kg bodyweight, was evaluated against adult cat flea (Ctenocephalides felis) infestations on dogs. […]

The subject of data set [4] is brown dog tick (Rhipicephalus sanguineus). Description: Residual efficacy against adult brown dog tick infestations on dogs, oral. The conditions noted are these: Table 7, oral capsule 25 mg/kg, Day 32. The format is in vivo. As to the method: (§4) Immediately following removal of D. variabilis ticks on Day 30, dogs were co-infested with approximately 50 adult, unfed brown dog ticks (R. sanguineus, approximately 50% male and 50% female) and approximately 100 adult, unfed cat fleas (C. felis, approximately 50% male and 50% female). Ticks and fleas were counted and removed on Day 32 (approximately 48 hours after infestation). GM percent efficacy of treatments against both tick species and fleas was calculated using the following formula: […]
as §3
(§5) The therapeutic (knockdown) and residual efficacy of S-enantiomer, 9, administered orally at a point dose of 25 mg/kg bodyweight, was evaluated against adult tick (Dermacentor variabilis and Rhipicephalus sanguineus) and adult cat flea (Ctenocephalides felis) infestations on dogs. Twelve (12) male and female beagle dogs were allocated to either an untreated, negative control group or 9 group (n=6 dogs per group). Dogs were infested with approximately 50 unfed, adult D. variabilis ticks on Days −1, 5, 12, 19, and 28. On Day 0, dogs were orally administered gelatin capsules containing 9 (50% technical active, 47% microcrystalline cellulose and 3% croscarmellose sodium, w/w) at a point dose of 25 mg/kg. D. variabilis tick counts and classification were conducted on Day 1 (thumb count, approximately 24 hours after treatment) and Days 2, 7, 14, 21 and 30 (approximately 48 hours after treatment). Following removal of D. variabilis ticks on Day 30, all dogs were co-infested with approximately 50 unfed, adult brown dog ticks (R. sanguineus) and approximately 100 unfed, adult cat fleas (C. felis). Brown dog tick and cat flea counts were conducted on Day 32 (approximately 48 hours after infestation). GM percent efficacy of treatments against both tick species and fleas was calculated using the following formula: […]

For data set [5], the system named is cat flea (Ctenocephalides felis). Put plainly: Residual efficacy against adult cat flea infestations on dogs, oral. The format is in vivo. The conditions noted are these: Table 7, oral capsule 25 mg/kg, Day 32. The method, then:
as §4, §3, §5

SMILES strings stand for the structures. A value given as a limit tells only on which side of the number the result lay.

Take `Cc1cc(C2=NOC(c3cc(Cl)c(F)c(Cl)c3)(C(F)(F)F)C2)ccc1C(=O)NCc1ccc2c(c1)C(C)(C)OB2O` (centres unmarked) [Compound 3, 4-(5-(3,5-Dichloro-4-fluorophenyl)-5-(trifluoromethyl)-4,5-dihydroisoxazol-3-yl)-N-((1-hydroxy-3,3-dimethyl-1,3-dihydrobenzo[c][1,2]oxaborol-5-yl)methyl)-2-methylbenzamide]: in data set [1], the mortality (usually the percentage killed) at 300 µM was at least 80%. Besides, the “Geometric mean group live parasite counts” value in data set [2] (Day 1) turned out to be 0.0; in data set [2] (Day 2), 0.0; in data set [2] (Day 7), 1.2; in data set [2] (Day 14) it was 13.3. The “% efficacy” value in data set [2] (Day 2) is listed as “(100) %”.

Consider `Cc1cc(C2=NOC(c3cc(Cl)cc(Cl)c3)(C(F)(F)F)C2)ccc1C(=O)NCc1ccc2c(c1)B(O)OC2(C)C` (centres unmarked) [Compound 5, 4-(5-(3,5-Dichlorophenyl)-5-(trifluoromethyl)-4,5-dihydroisoxazol-3-yl)-N-((1-hydroxy-3,3-dimethyl-1,3-dihydrobenzo[c][1,2]oxaborol-6-yl)-methyl)-2-methyl benzamide], for which the mortality at 300 µM in data set [1] was at least 80%. Besides, the therapeutic efficacy in data set [2] (24 hour post-treatment) and in data set [2] (48 hour post-treatment) was 100% throughout. Also, the figures for the Residual efficacy in data set [2] (Day 7) and in data set [2] (Day 14) were 82.6% and 82.7%, respectively. Also, the tolerability result in data set [3] was “well tolerated”.

Consider `Cc1cc(C2=NO[C@@](c3cc(Cl)c(F)c(Cl)c3)(C(F)(F)F)C2)ccc1C(=O)NCc1ccc2c(c1)B(O)OC2(C)C` [Compound 11, (S)-4-(5-(3,5-Dichloro-4-fluorophenyl)-5-(trifluoromethyl)-4,5-dihydroisoxazol-3-yl)-N-((1-hydroxy-3,3-dimethyl-1,3-dihydrobenzo[c][1,2]oxaborol-6-yl)methyl)-2-methylbenzamide], for which the mortality at 300 µM in data set [1] was at least 80%. In data set [2] (Example 11, oral capsule 25 mg/kg, through Day 21), the efficacy is reported as at least 99%. Also, the “Geometric mean group live parasite counts” value stood at 0.0 in data set [2] (Day 1); 0.0 in data set [2] (Day 2); 0.3 in data set [2] (Day 7); 0.3 in data set [2] (Day 14); 0.2 in data set [2] (Day 21); 1.1 in data set [2] (Day 30). Besides, the results for the “Geometric mean group live parasite counts” value in data set [4] and in data set [5] were 2.8 and 2.5, respectively. Also, the “% efficacy” value in data set [2] (Day 2) is on record as “(100) %”; in data set [2] (Day 7), “(98.8) %”; in data set [2] (Day 14), “(99.1) %”; in data set [2] (Day 21), “(99.0) %”; in data set [2] (Day 30) it was “(95.6) %”.

Take `Cc1cc(C2=NOC(c3cc(Cl)c(Cl)c(Cl)c3)(C(F)(F)F)C2)ccc1C(=O)NCc1ccc2c(c1)B(O)OC21CCCC1` (centres unmarked) [Compound 18, N-((1-Hydroxy-1H-spiro[benzo[c][1,2]oxaborole-3,1′-cyclopentan]-6-yl)methyl)-2-methyl-4-(5-(3,4,5-trichlorophenyl)-5-(trifluoromethyl)-4,5-dihydroisoxazol-3-yl)benzamide]: in data set [1], the mortality at 300 µM was at least 80%.

On to `Cc1cc(C2=NOC(c3cc(Cl)c(Cl)c(Cl)c3)(C(F)(F)F)C2)ccc1C(=O)NCCc1ccc2c(c1)B(O)OC2(C)C` (centres unmarked) [Compound 19, N-(2-(1-Hydroxy-3,3-dimethyl-1,3-dihydrobenzo[c][1,2]oxaborol-6-yl)ethyl)-2-methyl-4-(5-(3,4,5-trichlorophenyl)-5-(trifluoromethyl)-4,5-dihydroisoxazol-3-yl)benzamide], for which the mortality at 300 µM in data set [1] is at least 80%.

Regarding `Cc1cc(C2=NOC(c3cc(Cl)c(F)c(Cl)c3)(C(F)(F)F)C2)ccc1C(=O)NCCc1ccc2c(c1)B(O)OC2(C)C` (centres unmarked) [Compound 20, 4-(5-(3,5-Dichloro-4-fluorophenyl)-5-(trifluoromethyl)-4,5-dihydroisoxazol-3-yl)-N-(2-(1-hydroxy-3,3-dimethyl-1,3-dihydrobenzo[c][1,2]oxaborol-6-yl)ethyl)-2-methylbenzamide], in data set [1], the mortality at 300 µM was at least 80%.

Turning to `Cc1cc(C2=NOC(c3cc(Cl)c(Cl)c(Cl)c3)(C(F)(F)F)C2)ccc1C(=O)NC(C)c1ccc2c(c1)B(O)OC2(C)C` (centres unmarked) [Compound 22a, N-(1-(1-Hydroxy-3,3-dimethyl-1,3-dihydrobenzo[c][1,2]oxaborol-6-yl)ethyl)-2-methyl-4-(5-(3,4,5-trichlorophenyl)-5-(trifluoromethyl)-4,5-dihydroisoxazol-3-yl)benzamide], in data set [1], the mortality at 300 µM is at least 80%.

`Cc1cc(C2=NOC(c3cc(Cl)c(Cl)c(Cl)c3)(C(F)(F)F)C2)ccc1C(=O)NCc1cc(F)c2c(c1)B(O)OC2(C)C` (centres unmarked) [Compound 24, N-((4-fluoro-1-hydroxy-3,3-dimethyl-1,3-dihydrobenzo[c][1,2]oxaborol-6-yl)methyl)-2-methyl-4-(5-(3,4,5-trichlorophenyl)-5-(trifluoromethyl)-4,5-dihydroisoxazol-3-yl)benzamide]: the mortality at 300 µM in data set [1] is at least 80%.
